Data from patent publication US6811965B2, “Kidney perfusion solution containing nitric oxide donor, inhibitor of NOS2, glutathione, gluconate and methods of use” (priority 2000, dated 2004).

Tests used:
Porcine kidneys = test: Pulsatile perfusion preservation of explanted porcine kidneys; details: GSNO 90 micromolar, L-NIL 694 micromolar
Method: GSNO and L-NIL dihydrate hydrochloride were purchased from Alexis Corporation (San Diego, Calif.). Solution A was prepared by weighing out 30 milligrams of GSNO powder and adding it to 1 milliliter of Belzer Machine Perfusion solution (Transmed, Elk Grove, Minn.), and then injecting it into 1 liter of Belzer Perfusion solution while the perfusion solution was circulating through a Waters Instruments (Rochester, Minn.) kidney perfusion circuit (final concentration: 30 milligrams/liters; 90 micromolar). Solution B was prepared by weighing out 187 milligrams of L-NIL dihydrate hydrochloride powder and adding it to 3.5 milliliters of Belzer Machine Perfusion solution, and then injecting it into Solution A while the solution was circulating through a Waters Instruments kidney perfusion circuit (final concentration: 187 milligrams/liter; 694 micromolar).
Porcine kidneys were obtained following a warm ischemic time of 30-45 minutes. The kidneys were flushed with 1 L of Lactated Ringer's solution at 5 degrees C., and then flushed with 1 L Viaspan™ solution (DuPont, Wilmington, Del.) at 5 degrees C. The kidneys were then stored at 5 degrees C. for 3-30 h, at which time the kidneys were placed on a Waters Instruments (Rochester, Minn.) kidney perfusion circuit and perfused with 1 L of Belzer Machine Perfusion solution (Transmed, Elk Grove, Minn.). During the perfusion period, the kidneys were kept at a constant pressure of 40 mmHg. Eight kidneys were perfused with Belzer Machine Perfusion solution only, another eight kidneys were perfused with Belzer Machine Perfusion solution containing solution A (prepared as in Example 1), and a further eight kidneys were perfused with Belzer Machine Perfusion solution containing Solution B (prepared as in Example 1).
Hourly samples (3 ml total) were taken from each kidney for at least 5 hours, and in some cases 6 hours. Blood chemistry was analyzed using a GEMStat analyzer (Instruments Laboratory, Boston, Mass.). Statistical analyses were performed using Sigmastat software (SPSS, Chicago, Ill.).

[1] = test system: porcine coronary arteries; details: porcine model of balloon angioplasty and subsequent endovascular radiation; cited from earlier work
[2] = statistically significant effect relative to control perfusion solution, 5-6 h

## N[C@@H](CCC(=O)N[C@@H](CSN=O)C(=O)NCC(=O)O)C(=O)O [GSNO, S-nitrosoglutathione]
Porcine kidneys; statistically significant effect relative to control (Belzer Machine Perfusion solution only), constant pressure 40 mmHg, hourly samples 5-6 h
  Vascular Resistance: Lower
Porcine kidneys; [2]
  Base Excess: More
  Ca2+: Higher
  Hematocrit: Lower
  Oxygen Saturation: Equal
Porcine kidneys; statistically significant effect relative to control perfusion solution, 40 mmHg, 5-6 h
  Flow: Higher
[1]
  thrombosis: suppress thrombosis
